Experiment: Induction time for the crystallization of calcium phosphate in artificial urine
Conditions: for induction time t: 15 mM phosphate and 3 mM calcium solution in artificial urine (no magnesium); for delay in the induction time: 1 μM phytate versus solution without inhibitor
Description: From a 15 mM phosphate ion and 3 mM calcium ion solution in artificial urine, the induction times for the crystallization of calcium phosphate have been calculated at different pH and phytate concentration. The artificial urine had no magnesium since it is shown that the magnesium ion is a calcium phosphate crystallization inhibitor. […] Thus, while at pH 6.75, the calcium phosphate solution (without inhibitor) takes 1 minute to crystallize, with 1 μM phytate it takes 2 minutes (the delay in the induction time at this pH value is 1 minute, for 1 μM phytate). However, when the pH decreases to 6.60, the calcium phosphate solution (without inhibitor) takes 6 minutes to crystallize, while with 1 μM phytate it takes 33 minutes (the delay in the induction time at this pH value is 27 minutes, for 1 μM phytate). Thus, for the same amount of inhibitor there is a significant increase of the crystallization time when the value of the pH of the solution decreases.

## O=P(O)(O)O[C@H]1[C@H](OP(=O)(O)O)[C@@H](OP(=O)(O)O)[C@H](OP(=O)(O)O)[C@@H](OP(=O)(O)O)[C@H]1OP(=O)(O)O [phytate, myo-inositol-hexaphosphate]
0.5 μM phytate, pH = 6.60
  induction time t: 12 min
0.5 μM phytate, pH = 6.65
  induction time t: 4 min
0.5 μM phytate, pH = 6.75
  induction time t: 1 min
pH 6.60
  delay in the induction time: 27 min
pH 6.75
  delay in the induction time: 1 min
1.0 μM phytate, pH = 6.60
  induction time t: 33 min
1.0 μM phytate, pH = 6.65
  induction time t: 6 min
1.0 μM phytate, pH = 6.75
  induction time t: 2 min

Source: patent US11207365B2, “Combined preparations of urinary acidifiers and crystallization inhibitors and application thereof for the treatment or prevention of phosphatic or calcium phosphate-induced renal lithiasis” (UNIVERSITAT DE LES ILLES BALEARS, priority 2014, dated 2021)
